ChEMBL document CHEMBL3751786, “Toxocara canis: Larvicidal activity of fatty acid amides” (Bioorg Med Chem Lett, 2016)
Active and inactive are the calls of the source. No cut-off for these calls is given here.

Key:
Toxocara canis [1] = assay: Larvicidal activity against Toxocara canis larvae at 1 mg/ml after 48 hrs by trypan blue assay relative to control; format: functional
Toxocara canis [2] = assay: Larvicidal activity against Toxocara canis larvae infected in BALB/c mouse at 1 mg/ml after 12 hrs; format: functional
Toxocara canis [3] = assay: Larvicidal activity against Toxocara canis larvae infected in BALB/c mouse at 0.05 mg/ml after 12 hrs; format: functional
[4] = Cytotoxicity against C57BL/6 mouse peritoneal macrophages at 0.025 to 0.05 mg/ml after 48 hrs by MTT assay; format: cell-based, Peritoneal macrophage cell; settings: read-out: MLC
[5] = Cytotoxicity against C57BL/6 mouse peritoneal macrophages at 0.025 to 0.05 mg/ml after 48 hrs by LDH release assay; format: cell-based; settings: peritoneal macrophage cell
Toxocara canis [6] = assay: Larvicidal activity against Toxocara canis larvae infected in BALB/c mouse at 40 mg/kg after 12 hrs; format: functional, organism-based

Row | SMILES | Activity (Toxocara canis [1]) [%] | Activity (Toxocara canis [2]) | Activity (Toxocara canis [3]) | MCC at 48 h [4] [µg/mL] | Activity [5] [%] | Activity (Toxocara canis [6])
1 | CCCCCC[C@@H](O)C/C=C\CCCCCCCC(=O)NCc1ccccc1 | 100 | Active | – | – | – | –
2 | CCCCCCCCCCCCCCCCCC(=O)N[C@H](C)c1ccccc1 | 100 | Active | – | – | – | –
3 | CCCCCC[C@@H](O)C/C=C\CCCCCCCC(=O)NN1CCOCC1 | 100 | Active | – | – | – | –
4 | CCCCCC[C@@H](O)C/C=C\CCCCCCCC(=O)NN1CCCC1 | 100 | Active | – | – | – | –
5 | CCCCCC[C@@H](O)C/C=C\CCCCCCCC(=O)N[C@H](C)c1ccccc1 | 100 | Active | – | – | – | –
6 | CCCCC/C=C\C/C=C\CCCCCCCC(=O)N[C@@H](C)c1ccccc1 | 100 | Active | – | – | – | –
7 | CCCCCC[C@@H](O)C/C=C\CCCCCCCC(=O)N[C@@H](C)c1ccccc1 | 100 | Active | – | – | – | –
8 | CCCCC/C=C\C/C=C\CCCCCCCC(=O)N[C@H](C)c1ccccc1 | 100 | Active | – | – | – | –
9 | CCCCCCCC/C=C\CCCCCCCC(=O)NC(C)c1ccccc1 (centres undefined) | 100 | Active | – | – | – | –
10 | CCCCCCCC/C=C\CCCCCCCC(=O)N[C@@H](C)c1ccccc1 | 100 | Active | – | – | – | –
11 | CCCCCCCCCCCCCCCC(=O)N[C@H](C)c1ccccc1 | 100 | Active | – | – | – | –
12 | CCCCCCCC/C=C\CCCCCCCC(=O)N[C@H](C)c1ccccc1 | 100 | Active | – | – | – | –
13 | CCCCCCCCCCCCCCCCCC(=O)N[C@@H](C)c1ccccc1 | 100 | Active | – | – | – | –
14 | CCCCC/C=C\C/C=C\CCCCCCCC(=O)NN1CCCC1 | 100 | – | Active | 50 | 27 | –
15 | CCCCCCCC/C=C\CCCCCCCC(=O)NN1CCOCC1 | 100 | Active | – | – | – | –
16 | CCCSc1ccc2[nH]c(NC(=O)OC)nc2c1 [ALBENDAZOLE] | 100 | – | – | – | – | Active
